# Source: patent publication US20240327415A1, “Multicomponent Complexes, Including Salts, Crystalline Forms, and Hydrates and Solvates of ENT1 Inhibitors” (iTeos Belgium SA, priority 2023, published 2024)
# Tests used:
# Assay type in all cases: physicochemical
# [1] = particle size distribution (Mastersizer 2000)
# Experimental: In Example 5, the particle size distribution of solids was measured using a Mastersizer 2000 instrument and the method is detailed below.
# [2] = Variable Temperature X-Ray Powder Diffraction (VT-XRPD); set-up: key: Crystalline Form 3 di(hydrogen sulfate); Crystalline Form 9 di(hydrogen sulfate); Melt/Amorphous
# Experimental: (§1) In the examples below, VT-XRPD analysis was carried out on a Philips X'Pert Pro Multipurpose diffractometer equipped with a temperature chamber. The samples were scanned between 4 and 36° 2θ using Cu K radiation (α1 λ=1.54060 Å; α2=1.54443 Å; β=1.39225 Å; α1: α2 ratio=0.5; most, if not all, B radiation is removed from the beam using an X-ray mirror) running in Bragg-Brentano geometry (step size 0.008° 2θ) using 40 kV/40 mA generator settings. Measurements were carried out from ambient temperature to an upper limit of 250° C., with a final measurement taken after cooling.
# as §1, with “VT-XRPD” for “In the examples below, VT-XRPD”, “Å; β2=1.39225” for “Å; β=1.39225”, “Å; α1:α2” for “Å; α1: α2”, “all, β” for “all, B”
# [3] = Variable Humidity X-Ray Powder Diffraction (VH-XRPD)
# Experimental: as §1, with “VH-XRPD” for “VT-XRPD”, “humidity” for “temperature”, “(α1λ=1.54060” for “(α1 λ=1.54060”, “2-90% RH,” for “ambient temperature to an upper limit of 250° C.,”, “at 40% RH.” for “after cooling.”
# as §1, with “VH-XRPD analysis” for “In the examples below, VT-XRPD analysis”, “a humidity” for “a temperature”, “Å; α1:α2” for “Å; α1: α2”, “all, β” for “all, B”, “from 6-90% relative humidity (RH),” for “from ambient temperature to an upper limit of 250° C.,”, “taken at 40% RH.” for “taken after cooling.”
# [4] = Variable Temperature X-Ray Powder Diffraction (VT-XRPD)
# Experimental: as §1
# as §1, with “VT-XRPD” for “In the examples below, VT-XRPD”, “Å; β2=1.39225” for “Å; β=1.39225”, “Å; α1:α2” for “Å; α1: α2”, “all, β” for “all, B”
# [5] = hydration mapping studies (slurries at different water activities, Example 17)
# Experimental: Example 17—Hydration Mapping Studies-Crystalline Form 2 Compound 1 di(hydrogen sulfate) trihydrate, Crystalline Form 3 Compound 1 di(hydrogen sulfate), and Blend: The effects of different water activities on crystalline Form 2 Compound 1 di(hydrogen sulfate) trihydrate, crystalline Form 3 Compound 1 di(hydrogen sulfate) and a blend of the two were investigated. The “blend” was prepared by mixing crystalline Form 2 Compound 1 di(hydrogen sulfate) trihydrate and crystalline Form 3 Compound 1 di(hydrogen sulfate) in a 1:1 ratio. To the vials containing the required solid material, the appropriate solvent system was added to form slurries. The slurry samples were stirred at the required temperatures during and after the solvent addition. Where dissolution was observed post-solvent addition, additional solid was added to re-saturate the sample. After stirring at the required temperature for 48 hours, the residual solids left in the vials were analyzed by XRPD to assess the solid forms. The analyzed samples were then dried on the XRPD plate under reduced pressure at 40° C. for 24 hr. The dried samples were analyzed by XRPD.
# [6] = pH solubility studies in buffers and biorelevant media (Example 16); set-up: key: A: amorphous; Crystalline Form 10 mono(hydrogen sulfate); details: pH 6.8 (Phosphate), 24 h
# Experimental: Example 16—pH Solubility Studies—(1) Crystalline Form 2 Compound 1 di(hydrogen sulfate) trihydrate, (2) Crystalline Form 3 Compound 1 di(hydrogen sulfate), and (3) Crystalline Form 4 Compound 1 mono(hydrogen sulfate): pH solubility studies were carried out on the prepared crystalline Form 2 Compound 1 di(hydrogen sulfate) trihydrate, crystalline Form 3 Compound 1 di(hydrogen sulfate) and crystalline Form 4 Compound 1 mono(hydrogen sulfate) in the following media: (1) HCl/KCl, pH 1.2; (2) Acetate, pH 4.5; (3) Phosphate, pH 6.8; (4) FaSSIF; (5) FeSSIF; and (6) FaSSGF. Slurries of the hydrogen sulfate forms were prepared in the appropriate medium and stirred at 25° C. For the experiments in the buffer media, the pH of the slurry samples was measured and adjusted as required after 1 hour and 23 hours of the slurrying. Additional solid was added where dissolution was observed post-adjustment. The pH of the samples in the biorelevant media was measured at the 23 hour timepoint. No pH adjustment was made for the biorelevant media. After a total of 24 hours of slurrying, the mother liquors were extracted via centrifugation, and the concentrations and solution purity were determined by HPLC. The residual solids were isolated and analyzed by XRPD and are shown in FIG. 77, FIG. 78, and FIG. 79. The assessment was repeated for some of the samples, where required.
# [7] = After complete equilibration, 3 days post-drying (moisture content = 6.07%)
# [8] = Before complete equilibration, 24 hr post-drying (moisture content = 4.33%)
# [9] = second Heating, 150° C., hold 30 min
# [10] = second Heating, 160° C., hold 30 min
structure (smiles),measurement,setting,value
CCCN1CCNCCCNC(=O)c2cc(OC)c(OC)c(c2)OCCC[C@@H](OC(=O)c2cc(OC)c(OC)c(OC)c2)CC1,D10,[1]; [7],6.32 μm
same,D50,[1]; [7],32.90 μm
same,D90,[1]; [7],84.73 μm
same,D10,[1]; [8],17.596 μm
same,D50,[1]; [8],46.785 μm
same,D90,[1]; [8],109.799 μm
same,VT-XRPD Results,[2]; [9],Melt
same,VT-XRPD Results,[2]; [10],Melt
same,VH-XRPD: Conv. To Form 5 at,[3],5 at 6% RH
same,VH-XRPD: input form retained at,[3],at 10-80% RH
same,VH-XRPD Results,"[3]; Desorption, 6% RH, hold 60 min","5, PC"
same,VT-XRPD: Conv. To Form 5 at,[4],at 80-130 °C
same,VT-XRPD: Melt from,[4],Melt from 150 °C
same,VT-XRPD: input form retained at,[4],at 30-50 °C
same,solid form by XRPD after slurrying,"[5]; acetonitrile:water (aw=0.1) at 50° C., 48 hours",conversion to crystalline Form 6 Compound 1 di(hydrogen sulfate)
same,solid form by XRPD after slurrying,"[5]; the rest of the samples, 48 hours",consistent with crystalline Form 2 Compound 1 di(hydrogen sulfate) trihydrate
COc1cc(C(=O)O[C@@H]2CCCOc3cc(cc(OC)c3OC)C(=O)NCCCN3CCCN(CC2)CC3)cc(OC)c1OC.O=S(=O)(O)O,XRPD of residual solids,[6]; 25° C.,A
same,VT-XRPD: Conv. To Form 8 at,[4],at 40-70 °C
same,VT-XRPD: Conversion to amorph. At,[4],amorph. At ≥90 °C
same,temperature above which the sample turned amorphous,[4],greater than 90 °C
same,temperature range of conversion to crystalline Form 8 Compound 1 mono(hydrogen sulfate),[4],40-70 °C
COc1cc(C(=O)O[C@@H]2CCCOc3cc(cc(OC)c3OC)C(=O)NCCCN3CCCN(CC2)CC3)cc(OC)c1OC.O=S(=O)(O)O.O=S(=O)(O)O [crystalline Form 3 Compound 1 di(hydrogen sulfate)],VT-XRPD Results,"[2]; Cooling, 30° C., hold 10 min",9
same,VT-XRPD Results,"[2]; Heating, 70° C., hold 30 min",9
same,VT-XRPD Results,"[2]; Heating, 90° C., hold 30 min",9
same,VT-XRPD Results,"[2]; Heating, 105° C., hold 30 min",9
same,VT-XRPD Results,"[2]; second Heating, 120° C., hold 30 min",9
same,VT-XRPD Results,"[2]; second Heating, 130° C., hold 30 min",9
same,VT-XRPD Results,"[2]; second Heating, 140° C., hold 30 min",9
same,VT-XRPD Results,[2]; [9],9
same,VT-XRPD Results,[2]; [10],9 and Melt
same,VH-XRPD: Conv. To Form 6→Form 2 at,[3],Form 2 at ≥70% RH
same,VH-XRPD: input form retained at,[3],at 10-60% RH
same,relative humidity range in which peaks of crystalline Form 6 Compound 1 di(hydrogen sulfate) are observed in addition,[3],70-80 % RH
same,relative humidity range in which the form is retained (VH-XRPD),[3],2-60 % RH
same,relative humidity at which conversion to crystalline Form 2 Compound 1 di(hydrogen sulfate) trihydrate is observed,[3]; Form 3: after extended exposure,≥ 80 % RH
same,XRPD of residual solids,"[6]; attempt 1, 25° C.",A
same,XRPD of residual solids,"[6]; attempt 2, 25° C.",A
same,VT-XRPD: Conv. To Form 9 from,[4],from 50-160 °C
same,VT-XRPD: Melt from,[4],Melt from 160 °C
same,VT-XRPD: input form retained at,[4],at 25-50 °C
same,temperature range in which the form is retained (VT-XRPD),[4],25-40 °C
same,VT-XRPD Results,"[4]; Heating, 50° C., hold 30 min",3 (trace of 9)
same,solid form by XRPD after slurrying,"[5]; solvent systems with aw=0.1, 48 hours",retained
same,solid form by XRPD after slurrying,"[5]; solvent systems with aw=0.9, 48 hours",Conversion to crystalline Form 2 Compound 1 di(hydrogen sulfate) trihydrate
